compound: Cn1c(=O)n(-c2ccc(C(C)(C)C#N)cc2)c2c3cc(-c4cnc5ccccc5c4)ccc3ncc21 [Dactolisib] + Cc1cc(Nc2cc(N3CCN(C)CC3)nc(Sc3ccc(NC(=O)C4CC4)cc3)n2)n[nH]1 [Tozasertib] (partner 0.1 µM); experiment: relative viability (nuclei count vs DMSO), 5 days (fraction); higher = more cells survive; conditions: first compound 0.002 µM
In short: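 One day after seeding in 1536-well plates, lung cancer cell lines were dosed by pin tool. Dosing was either single-drug or a fixed anchor-drug dose plus five library-drug doses (not always all listed) in √10 steps. After 5 days, nuclei were stained in one fix-and-stain step and counted on 4× images, and relative viability is the nuclei count of treated wells over that of vehicle wells, given as the median of duplicate plates.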

First: SK-LU-1
Second: NCI-H838
The relative viability of the first is higher: 0.324 for the first, 0.249 for the second.

Compared with LCLC-103H, NCI-H520 is lower in relative viability: 0.492 for the first, 0.425 for the second.

Compared with NCI-H2126, EMC-BAC-2 is lower in relative viability: 0.813 for the first, 0.266 for the second.

Going from NCI-H2085 to HCC-366, the relative viability falls from 0.852 to 0.11.

Going from NCI-H1666 to NCI-H596, the relative viability rises from 0.742 to 0.942.

Compared with LK-2, NCI-H2087 is higher in relative viability: 0.209 for the first, 0.328 for the second.

Compared with NCI-H1648, SK-MES-1 is higher in relative viability: 0.407 for the first, 0.989 for the second.

Compared with H3255, COR-L23 is lower in relative viability: 0.525 for the first, 0.273 for the second.

First: COR-L 105
Second: LOU-NH91
The relative viability of the first is lower: 0.413 for the first, 0.645 for the second.

Compared with ChaGo-K-1, NCI-H2170 is higher in relative viability: 0.248 for the first, 0.753 for the second.

Compared with NCI-H2405, HOP-62 is lower in relative viability: 0.79 for the first, 0.423 for the second.

Compared with HCC-44, NCI-H522 is lower in relative viability: 0.826 for the first, 0.625 for the second.

Going from LU99A to BEN, the relative viability rises from 0.265 to 0.525.

In the case of HCC-78, the relative viability is reported as 0.457.

same assay, conditions: first compound 0.006325 µM

Compared with NCI-H2342, NCI-H1623 is lower in relative viability: 0.496 for the first, 0.414 for the second.

Compared with NCI-H727, NCI-H1650 is lower in relative viability: 0.587 for the first, 0.476 for the second.

Compared with NCI-H1993, SK-LU-1 is lower in relative viability: 0.581 for the first, 0.307 for the second.

Going from NCI-H838 to LCLC-103H, the relative viability rises from 0.295 to 0.481.

First: NCI-H520
Second: NCI-H2126
The relative viability of the first is lower: 0.468 for the first, 0.829 for the second.

First: EMC-BAC-2
Second: NCI-H2085
The relative viability of the first is lower: 0.271 for the first, 0.776 for the second.

Compared with HCC-366, NCI-H1666 is higher in relative viability: 0.101 for the first, 0.614 for the second.

First: NCI-H596
Second: LK-2
The relative viability of the first is higher: 0.751 for the first, 0.197 for the second.

Compared with NCI-H2087, NCI-H1648 is higher in relative viability: 0.248 for the first, 0.433 for the second.

First: SK-MES-1
Second: H3255
The relative viability of the first is higher: 0.84 for the first, 0.521 for the second.

First: COR-L23
Second: COR-L 105
The relative viability of the first is lower: 0.243 for the first, 0.401 for the second.

First: LOU-NH91
Second: ChaGo-K-1
The relative viability of the first is higher: 0.655 for the first, 0.235 for the second.

First: NCI-H2170
Second: NCI-H2405
The relative viability of the first is lower: 0.735 for the first, 0.826 for the second.

Going from HOP-62 to HCC-44, the relative viability rises from 0.383 to 0.899.

First: NCI-H522
Second: LU99A
The relative viability of the first is higher: 0.575 for the first, 0.257 for the second.

Going from BEN to HCC-78, the relative viability falls from 0.553 to 0.418.

same assay, conditions: first compound 0.02 µM

Going from NCI-H2342 to NCI-H1623, the relative viability falls from 0.435 to 0.428.

Going from NCI-H727 to NCI-H1650, the relative viability falls from 0.561 to 0.425.

Compared with NCI-H1993, SK-LU-1 is lower in relative viability: 0.504 for the first, 0.302 for the second.

Going from NCI-H838 to LCLC-103H, the relative viability rises from 0.254 to 0.451.

First: NCI-H520
Second: NCI-H2126
The relative viability of the first is lower: 0.365 for the first, 0.814 for the second.

Going from EMC-BAC-2 to NCI-H2085, the relative viability rises from 0.334 to 0.649.

First: HCC-366
Second: NCI-H1666
The relative viability of the first is lower: 0.0652 for the first, 0.667 for the second.

First: NCI-H596
Second: LK-2
The relative viability of the first is higher: 0.632 for the first, 0.181 for the second.

First: NCI-H2087
Second: NCI-H1648
The relative viability of the first is lower: 0.243 for the first, 0.446 for the second.

First: SK-MES-1
Second: H3255
The relative viability of the first is higher: 0.876 for the first, 0.682 for the second.

First: COR-L23
Second: COR-L 105
The relative viability of the first is lower: 0.257 for the first, 0.35 for the second.

Going from LOU-NH91 to ChaGo-K-1, the relative viability falls from 0.683 to 0.221.

Going from NCI-H2170 to NCI-H2405, the relative viability rises from 0.62 to 0.85.

First: HOP-62
Second: HCC-44
The relative viability of the first is lower: 0.473 for the first, 0.855 for the second.

Going from NCI-H522 to LU99A, the relative viability falls from 0.542 to 0.283.

Compared with BEN, HCC-78 is lower in relative viability: 0.53 for the first, 0.414 for the second.

same assay, conditions: first compound 0.06325 µM

Going from NCI-H2342 to NCI-H1623, the relative viability falls from 0.502 to 0.37.

First: NCI-H727
Second: NCI-H1650
The relative viability of the first is higher: 0.451 for the first, 0.367 for the second.

First: NCI-H1993
Second: SK-LU-1
The relative viability of the first is higher: 0.495 for the first, 0.245 for the second.

First: NCI-H838
Second: LCLC-103H
The relative viability of the first is lower: 0.208 for the first, 0.379 for the second.

Compared with NCI-H520, NCI-H2126 is higher in relative viability: 0.196 for the first, 0.536 for the second.

Going from EMC-BAC-2 to NCI-H2085, the relative viability rises from 0.287 to 0.502.

Compared with HCC-366, NCI-H1666 is higher in relative viability: 0.0776 for the first, 0.526 for the second.

Compared with NCI-H596, LK-2 is lower in relative viability: 0.35 for the first, 0.153 for the second.

Going from NCI-H2087 to NCI-H1648, the relative viability rises from 0.176 to 0.24.

First: SK-MES-1
Second: H3255
The relative viability of the first is lower: 0.32 for the first, 0.51 for the second.

Going from COR-L23 to COR-L 105, the relative viability rises from 0.149 to 0.361.

Going from LOU-NH91 to ChaGo-K-1, the relative viability falls from 0.616 to 0.223.

Going from NCI-H2170 to NCI-H2405, the relative viability rises from 0.511 to 0.527.

Compared with HOP-62, HCC-44 is higher in relative viability: 0.306 for the first, 0.341 for the second.

Going from NCI-H522 to LU99A, the relative viability falls from 0.521 to 0.224.

First: BEN
Second: HCC-78
The relative viability of the first is higher: 0.49 for the first, 0.361 for the second.

same assay, conditions: first compound 0.2 µM

Compared with NCI-H2342, NCI-H1623 is lower in relative viability: 0.362 for the first, 0.298 for the second.

Going from NCI-H727 to NCI-H1650, the relative viability falls from 0.407 to 0.302.

Compared with NCI-H1993, SK-LU-1 is lower in relative viability: 0.502 for the first, 0.176 for the second.

Going from NCI-H838 to LCLC-103H, the relative viability rises from 0.199 to 0.286.

First: NCI-H520
Second: NCI-H2126
The relative viability of the first is lower: 0.218 for the first, 0.452 for the second.

First: EMC-BAC-2
Second: NCI-H2085
The relative viability of the first is lower: 0.273 for the first, 0.347 for the second.

Compared with HCC-366, NCI-H1666 is higher in relative viability: 0.0308 for the first, 0.614 for the second.

Compared with NCI-H596, LK-2 is lower in relative viability: 0.32 for the first, 0.171 for the second.

First: NCI-H2087
Second: NCI-H1648
The relative viability of the first is lower: 0.192 for the first, 0.218 for the second.

Compared with SK-MES-1, H3255 is higher in relative viability: 0.264 for the first, 0.432 for the second.

First: COR-L23
Second: COR-L 105
The relative viability of the first is lower: 0.147 for the first, 0.289 for the second.

First: LOU-NH91
Second: ChaGo-K-1
The relative viability of the first is higher: 0.449 for the first, 0.211 for the second.

Going from NCI-H2170 to NCI-H2405, the relative viability rises from 0.252 to 0.44.

Going from HOP-62 to HCC-44, the relative viability falls from 0.309 to 0.297.

First: NCI-H522
Second: LU99A
The relative viability of the first is higher: 0.385 for the first, 0.185 for the second.

Compared with BEN, HCC-78 is lower in relative viability: 0.42 for the first, 0.284 for the second.
